Experimental data as given in patent publication US20220312771A1, “BIOCIDAL COMPOSITE MATERIAL” (PENNOG LIMITED, priority 2019, published 2022).

System: Chlorella sp.
Assay: Growth of Chlorella sp. in Jaworskis Medium with different concentrations of copper
Assay type: cell-based
Details: 14 days
Experimental: Fresh water algae Chlorella sp. cultivated at between 10° C. and 20° C. for 14 days on Jaworskis Medium (Table below) was inoculated into fresh, sterile Jaworskis Medium (prepared as per Table 11) containing copper sulphate solution and copper-containing soak solutions. The soak solution was obtained from the third soak of the second cycle of phototreated MSMCu from Example 3. The extent of growth of Chlorella sp. was observed after a further 14 days (Table 12).
After 14 days in different concentrations of copper.

Structure (SMILES): O=S(=O)([O-])[O-].[Cu+2] [Copper sulphate solution, copper sulphate]
- Growth of Chlorella sp., Abs 665 nm (copper concentration 1 μg/L): 0.137
- Growth of Chlorella sp., Abs 780 nm (copper concentration 1 μg/L): 0.118
- Growth of Chlorella sp., Abs 665 nm (copper concentration 2 μg/L): 0.143
- Growth of Chlorella sp., Abs 780 nm (copper concentration 2 μg/L): 0.128
- Growth of Chlorella sp., Abs 665 nm (copper concentration 5 μg/L): 0.103
- Growth of Chlorella sp., Abs 780 nm (copper concentration 5 μg/L): 0.096
- Growth of Chlorella sp., Abs 665 nm (copper concentration 7 μg/L): 0.081
- Growth of Chlorella sp., Abs 780 nm (copper concentration 7 μg/L): 0.077
- Growth of Chlorella sp., Abs 665 nm (copper concentration 9 μg/L): 0.092
- Growth of Chlorella sp., Abs 780 nm (copper concentration 9 μg/L): 0.077
